Tested on: patients with negative symptoms of schizophrenia
Experiment: Study #1 (MIN-101C03): rate of relapse
Assay type: in vivo, human
Settings: for Rate of relapse (%) / Rate of relapse (number of patients): DB period, MIN-101C03
Description: “Time to relapse” in the DB period is defined as the number of days from Day 1 to the date of early trial termination due to relapse. […] Treatment differences in time to relapse in the DB period were analyzed using a Cox-regression model with treatment group and Baseline PANSS total score as covariates. For the analysis of the OL period, this analysis was repeated to analyze treatment differences in time to relapse in the study. For the OL period analysis, patients who were not observed to relapse in the study were censored on the date on which they ended the study. Kaplan-Meier plots of time to relapse in the DB period, OL period, and in the study were generated.
In some embodiments, for any of the methods disclosed herein, a relapse refers to a patient who is terminated early during treatment (or a study trial) due to worsening of psychosis or an adverse event or generalized symptom in Table 1.
Phase 2b Study #1 (also referred to herein as “MIN-101C03”) was a Phase 2b, double-blind (“DB”), placebo-controlled, randomized, multicenter 12-week study to evaluate the efficacy, safety, and tolerability of Roluperidone in patients ≥18 years to ≤60 years with negative symptoms of schizophrenia, followed by a 24-week open-label (“OL”) extension. The primary objective of the study was to evaluate the efficacy of Roluperidone compared to placebo in improving the negative symptoms of schizophrenia as measured by the change from Baseline in the PANSS negative factor score of the PSM (“PANSS PSM”) over 12 weeks of treatment.
The study consisted of a pretreatment screening period of up to 28 days (including washout), a 12-week, DB, placebo-controlled period, and a 24-week OL period. Eligible patients (who were symptomatically stable for at least 3 months and had scores of at least 20 on the PANSS negative subscale score) were randomized in a 1:1:1 ratio to receive oral Roluperidone (a modified-release, “MR”, formulation) 32 mg QD, Roluperidone 64 mg QD, or placebo for 12 weeks. […] During the 24-week, OL treatment extension period, patients who were initially randomized to Roluperidone 32 mg or 64 mg continued on the same dose, while patients who were initially randomized to placebo crossed over to Roluperidone 32 mg or 64 mg in a 1:1 ratio.

1H-Isoindol-1-one,2-[ [1-[2-(4-fluorophenyl)-2-oxoethyl]-4-piperidinyl]methyl]-2,3-dihydro-, hydrochloride, hydrate (1:1:2) [Roluperidone]
Rate of relapse (%) (32 mg): 7%
Rate of relapse (number of patients) (32 mg): 5
Rate of relapse (%) (64 mg): 9%
Rate of relapse (number of patients) (64 mg): 7
Relapse by study phase (Study #1 (n = 244), all subjects, Double-blind (12-weeks)): 11.5%
Relapse overall (discontinued because of positive symptoms worsening) (Study #1 (n = 244), Overall (over 36 weeks)): 15.2%
Relapse by study phase (Study #1, Open-label (over 24 weeks)): 6%
